Results published in patent US10160726B2, “Quinolone derivatives as antibacterials” (priority 2014, dated 2018).
Converted amounts (≈) assume the structure as drawn.

Tests used:
Assay type in all cases: cell-based
[1] = system: P. aeruginosa NB52019 (wild-type PAO1); assay: MIC, broth microdilution (CLSI); conditions: Pseudomonas aeruginosa, PAO1, 20 h; read-out: Antibacterial activity (MIC) NB52019
[2] = system: E. coli ATCC 25922 (NB27001); assay: MIC, broth microdilution (CLSI); conditions: Escherichia coli, ATCC25922; E. coli ATCC 25922; 35° C., 20 hours; read-out: Antibacterial activity (MIC) NB27001
[3] = system: S. aureus NB01006-AVR005 (gyrA S84L, grlA S80F, grlB E471K); assay: microbe, parasite or virus in culture; conditions: Staphylococcus aureus, 20 h, read-out: Antibacterial activity (MIC) NB01006-AVR005
[4] = system: P. aeruginosa NB52023 (efflux deficient K1542, ΔmexX ΔmexB); assay: microbe, parasite or virus in culture; conditions: Pseudomonas aeruginosa, 20 h, read-out: Antibacterial activity (MIC) NB52023
[5] = system: S. aureus ATCC 29213 (NB01001); assay: MIC, broth microdilution (CLSI); conditions: Staphylococcus aureus, ATCC29213; S. aureus ATCC 29213; 35° C., 20 hours; read-out: Antibacterial activity (MIC) NB01001
[6] = system: P. aeruginosa NB52023-CDK0006 (gyrA T83I, parC S87L); assay: microbe, parasite or virus in culture; conditions: Pseudomonas aeruginosa, 20 h, read-out: Antibacterial activity (MIC) NB52023-CDK0006
[7] = system: E. coli NB27177 (efflux deficient CGSC 11430, ΔtolC732::kan); assay: microbe, parasite or virus in culture; conditions: Escherichia coli, 20 h, read-out: Antibacterial activity (MIC) NB27177

Structure (SMILES): CCOC(=O)c1cc(=O)n(C2CC2)c2c(C)c(N3CC[C@@H]([C@H](C)N)C3)c(F)cc12 [Example 35, ethyl 7-((R)-3-((S)-1-aminoethyl)pyrrolidin-1-yl)-1-cyclopropyl-6-fluoro-8-methyl-2-oxo-1,2-dihydroquinoline-4-carboxylate]
- MIC [1]: 8 µg/mL (≈ 19.9 µM)
- MIC [2]: 4 µg/mL (≈ 9.96 µM)
- MIC [3]: 0.06 µg/mL (≈ 0.149 µM)
- MIC [4]: 8 µg/mL (≈ 19.9 µM)
- MIC [5]: 0.06 µg/mL (≈ 0.149 µM)
- MIC [6]: 8 µg/mL (≈ 19.9 µM)
- MIC [7]: < 0.03 µg/mL

Structure (SMILES): Cc1c(N2CC[C@@H]([C@H](C)N)C2)c(F)cc2c(N)cc(=O)n(C3CC3)c12 [Example 36, 4-amino-7-((R)-3-((S)-1-aminoethyl)pyrrolidin-1-yl)-1-cyclopropyl-6-fluoro-8-methylquinolin-2(1H)-one]
- MIC [1]: > 16 µg/mL
- MIC [2]: 16 µg/mL (≈ 46.5 µM)
- MIC [3]: 1 µg/mL (≈ 2.9 µM)
- MIC [4]: 16 µg/mL (≈ 46.5 µM)
- MIC [5]: 2 µg/mL (≈ 5.81 µM)
- MIC [6]: > 16 µg/mL
- MIC [7]: 1 µg/mL (≈ 2.9 µM)

Structure (SMILES): Cc1c(N2CC[C@@H]([C@H](C)N)C2)c(F)cc2c(NS(C)(=O)=O)cc(=O)n(C3CC3)c12 [Example 37, N-(7-((R)-3-((S)-1-aminoethyl)pyrrolidin-1-yl)-1-cyclopropyl-6-fluoro-8-methyl-2-oxo-1,2-dihydroquinolin-4-yl)methanesulfonamide]
- MIC [1]: 32 µg/mL (≈ 75.7 µM)
- MIC [2]: 32 µg/mL (≈ 75.7 µM)
- MIC [3]: 16 µg/mL (≈ 37.9 µM)
- MIC [4]: > 32 µg/mL
- MIC [5]: 8 µg/mL (≈ 18.9 µM)
- MIC [6]: > 32 µg/mL
- MIC [7]: 4 µg/mL (≈ 9.47 µM)

Structure (SMILES): Cc1c(N2CC[C@@H]([C@H](C)N)C2)c(F)cc2c(-c3noc(=O)[nH]3)cc(=O)n(C3CC3)c12 [Example 38, 3-(7-((R)-3-((S)-1-aminoethyl)pyrrolidin-1-yl)-1-cyclopropyl-6-fluoro-8-methyl-2-oxo-1,2-dihydroquinolin-4-yl)-1,2,4-oxadiazol-5(4H)-one]
- MIC [1]: > 32 µg/mL
- MIC [2]: 32 µg/mL (≈ 77.4 µM)
- MIC [3]: 4 µg/mL (≈ 9.67 µM)
- MIC [4]: 32 µg/mL (≈ 77.4 µM)
- MIC [5]: 4 µg/mL (≈ 9.67 µM)
- MIC [6]: > 32 µg/mL
- MIC [7]: 2 µg/mL (≈ 4.84 µM)

Structure (SMILES): Cc1c(N2CC[C@@H]([C@H](C)N)C2)c(F)cc2c(C(=N)NO)cc(=O)n(C3CC3)c12 [Example 40, 7-((R)-3-((S)-1-aminoethyl)pyrrolidin-1-yl)-1-cyclopropyl-6-fluoro-N-hydroxy-8-methyl-2-oxo-1,2-dihydroquinoline-4-carboximidamide]
- MIC [1]: 16 µg/mL (≈ 41.3 µM)
- MIC [2]: 4 µg/mL (≈ 10.3 µM)
- MIC [3]: 4 µg/mL (≈ 10.3 µM)
- MIC [4]: 4 µg/mL (≈ 10.3 µM)
- MIC [5]: 4 µg/mL (≈ 10.3 µM)
- MIC [6]: 8 µg/mL (≈ 20.6 µM)
- MIC [7]: 0.5 µg/mL (≈ 1.29 µM)

Structure (SMILES): Cc1c(N2CC[C@@H]([C@H](C)N)C2)c(F)cc2c(C3=NOS(=O)N3)cc(=O)n(C3CC3)c12 (stereo partly drawn) [Example 41, 7-((R)-3-((S)-1-aminoethyl)pyrrolidin-1-yl)-1-cyclopropyl-6-fluoro-8-methyl-4-(2-oxido-3H-1,2,3,5-oxathiadiazol-4-yl)quinolin-2(1H)-one]
- MIC [1]: 16 µg/mL (≈ 36.9 µM)
- MIC [2]: 4 µg/mL (≈ 9.23 µM)
- MIC [3]: 0.5 µg/mL (≈ 1.15 µM)
- MIC [4]: 4 µg/mL (≈ 9.23 µM)
- MIC [5]: 0.5 µg/mL (≈ 1.15 µM)
- MIC [6]: 8 µg/mL (≈ 18.5 µM)
- MIC [7]: 0.125 µg/mL (≈ 0.288 µM)

Structure (SMILES): Cc1c(N2CC[C@@H]([C@H](C)N)C2)c(F)cc2c(Cl)cc(=O)n(C3CC3)c12 [Example 44, 7-((R)-3-((S)-1-aminoethyl)pyrrolidin-1-yl)-4-chloro-1-cyclopropyl-6-fluoro-8-methylquinolin-2(1H)-one]
- MIC [1]: 8 µg/mL (≈ 22 µM)
- MIC [2]: 2 µg/mL (≈ 5.5 µM)
- MIC [3]: 0.03 µg/mL (≈ 0.0824 µM)
- MIC [4]: 4 µg/mL (≈ 11 µM)
- MIC [5]: 0.06 µg/mL (≈ 0.165 µM)
- MIC [6]: 8 µg/mL (≈ 22 µM)
- MIC [7]: 0.03 µg/mL (≈ 0.0824 µM)

Structure (SMILES): CC(=O)NCc1cc(=O)n(C2CC2)c2c(C)c(N3CC[C@@H]([C@H](C)N)C3)c(F)cc12 [Example 46, N-((7-((R)-3-((S)-1-aminoethyl)pyrrolidin-1-yl)-1-cyclopropyl-6-fluoro-8-methyl-2-oxo-1,2-dihydroquinolin-4-yl)methyl)acetamide]
- MIC [1]: 32 µg/mL (≈ 79.9 µM)
- MIC [2]: 32 µg/mL (≈ 79.9 µM)
- MIC [3]: 2 µg/mL (≈ 4.99 µM)
- MIC [4]: > 32 µg/mL
- MIC [5]: 8 µg/mL (≈ 20 µM)
- MIC [6]: > 32 µg/mL
- MIC [7]: 2 µg/mL (≈ 4.99 µM)
